In the CheMixHub viscosity set:

Assay: xn = mol fraction of the nth substance listed

c1ccccc1 + CO
viscosity [mPa·s]
Details | 293.15 K | 298.15 K | 303.15 K | 313.15 K | 323.15 K
101 kPa, x1 = 0.1598 | – | – | 0.564 | 0.491 | 0.411
101 kPa, x1 = 0.3449 | – | – | 0.563 | 0.507 | 0.405
101 kPa, x1 = 0.4474 | – | – | 0.559 | 0.478 | 0.414
101 kPa, x1 = 0.7425 | – | – | 0.546 | 0.469 | 0.411
101 kPa, x1 = 0.8277 | – | – | 0.54 | 0.49 | 0.413
101 kPa, x2 = 0.0504 | – | 0.581 | – | – | –
101 kPa, x2 = 0.1 | 0.622 | 0.563 | – | – | –
101 kPa, x2 = 0.152 | 0.615 | – | 0.534 | 0.468 | 0.416
101 kPa, x2 = 0.1998 | – | 0.553 | – | – | –
101 kPa, x2 = 0.2 | 0.613 | – | – | – | –
101 kPa, x2 = 0.272 | 0.613 | – | 0.532 | 0.461 | 0.414
101 kPa, x2 = 0.2982 | – | 0.56 | – | – | –
101 kPa, x2 = 0.4 | 0.619 | 0.561 | – | – | –
101 kPa, x2 = 0.444 | 0.619 | – | 0.536 | 0.469 | 0.415
101 kPa, x2 = 0.5 | – | 0.566 | – | – | –
101 kPa, x2 = 0.6 | 0.626 | 0.565 | – | – | –
101 kPa, x2 = 0.632 | 0.624 | – | 0.535 | 0.467 | 0.414
101 kPa, x2 = 0.7 | – | 0.56 | – | – | –
101 kPa, x2 = 0.766 | 0.619 | – | 0.534 | 0.466 | 0.412
101 kPa, x2 = 0.8 | 0.626 | – | – | – | –
101 kPa, x2 = 0.8009 | – | 0.557 | – | – | –
101 kPa, x2 = 0.9 | 0.61 | – | – | – | –
101 kPa, x2 = 0.901 | 0.604 | – | 0.527 | 0.464 | 0.411
101 kPa, x2 = 0.9013 | – | 0.553 | – | – | –
101 kPa, x2 = 0.95 | – | 0.551 | – | – | –
101.33 kPa, x1 = 0.04357 | 0.59 | – | 0.5121 | 0.4473 | 0.3935
101.33 kPa, x1 = 0.0572 | – | – | 0.562 | 0.5 | 0.415
101.33 kPa, x1 = 0.1598 | – | – | 0.564 | 0.491 | 0.411
101.33 kPa, x1 = 0.2216 | 0.6132 | – | 0.528 | 0.4585 | 0.4016
101.33 kPa, x1 = 0.2552 | – | – | 0.56 | 0.505 | 0.418
101.33 kPa, x1 = 0.3449 | – | – | 0.563 | 0.507 | 0.405
101.33 kPa, x1 = 0.4216 | 0.6197 | – | 0.5315 | 0.4613 | 0.4039
101.33 kPa, x1 = 0.4474 | – | – | 0.559 | 0.478 | 0.414
101.33 kPa, x1 = 0.603 | 0.6164 | – | 0.5296 | 0.4593 | 0.4034
101.33 kPa, x1 = 0.7425 | – | – | 0.546 | 0.469 | 0.411
101.33 kPa, x1 = 0.7816 | 0.6138 | – | 0.5278 | 0.4611 | 0.4073
101.33 kPa, x1 = 0.8277 | – | – | 0.54 | 0.49 | 0.413
101.33 kPa, x1 = 0.9285 | 0.6252 | – | 0.5399 | 0.4736 | 0.4198

c1ccccc1 + Cc1ccccc1
Details | viscosity [mPa·s]
293.15 K, 100 kPa, x2 = 0.25 | 0.631
293.15 K, 101 kPa, x1 = 0.28 | 0.584
293.15 K, 101 kPa, x1 = 0.54 | 0.597
293.15 K, 101 kPa, x1 = 0.78 | 0.607
293.15 K, 101.33 kPa, x1 = 0.1688 | 0.575
293.15 K, 101.33 kPa, x1 = 0.4383 | 0.592
293.15 K, 101.33 kPa, x1 = 0.5149 | 0.599
293.15 K, 101.33 kPa, x1 = 0.6583 | 0.606
293.15 K, 101.33 kPa, x1 = 0.7819 | 0.617
294.15 K, 100 kPa, x2 = 0.75 | 0.621
294.65 K, 101.33 kPa, x2 = 0.83 | 0.6216
294.75 K, 101.33 kPa, x2 = 0.202 | 0.6571
294.95 K, 101.33 kPa, x2 = 0.62 | 0.6245
295.55 K, 101.33 kPa, x2 = 0.508 | 0.6234
295.65 K, 101.33 kPa, x2 = 0.107 | 0.6473
295.85 K, 101.33 kPa, x2 = 0.272 | 0.6379
296.05 K, 101.33 kPa, x2 = 0.386 | 0.6282
297.35 K, 101.33 kPa, x2 = 0.719 | 0.6066
298.15 K, 101 kPa, x1 = 0.1 | 0.5546
298.15 K, 101 kPa, x1 = 0.1153 | 0.556
298.15 K, 101 kPa, x1 = 0.1272 | 0.555
298.15 K, 101 kPa, x1 = 0.2 | 0.5566
298.15 K, 101 kPa, x1 = 0.2022 | 0.5584
298.15 K, 101 kPa, x1 = 0.28 | 0.556
298.15 K, 101 kPa, x1 = 0.2965 | 0.5613
298.15 K, 101 kPa, x1 = 0.3 | 0.5595
298.15 K, 101 kPa, x1 = 0.3423 | 0.558
298.15 K, 101 kPa, x1 = 0.4 | 0.5632
298.15 K, 101 kPa, x1 = 0.4076 | 0.5651
298.15 K, 101 kPa, x1 = 0.5 | 0.5678
298.15 K, 101 kPa, x1 = 0.54 | 0.566
298.15 K, 101 kPa, x1 = 0.5405 | 0.5703
298.15 K, 101 kPa, x1 = 0.6 | 0.5732
298.15 K, 101 kPa, x1 = 0.7 | 0.5794
298.15 K, 101 kPa, x1 = 0.7024 | 0.579
298.15 K, 101 kPa, x1 = 0.7237 | 0.5802
298.15 K, 101 kPa, x1 = 0.78 | 0.574
298.15 K, 101 kPa, x1 = 0.8 | 0.5864
298.15 K, 101 kPa, x1 = 0.8593 | 0.5888
298.15 K, 101 kPa, x1 = 0.9 | 0.594
298.15 K, 101 kPa, x1 = 0.9275 | 0.594
298.15 K, 101 kPa, x1 = 0.9637 | 0.5968
298.15 K, 101.33 kPa, x1 = 0.0655 | 0.5543
298.15 K, 101.33 kPa, x1 = 0.0991 | 0.5554
298.15 K, 101.33 kPa, x1 = 0.2566 | 0.5591
298.15 K, 101.33 kPa, x1 = 0.3969 | 0.5652
298.15 K, 101.33 kPa, x1 = 0.5481 | 0.572
298.15 K, 101.33 kPa, x1 = 0.6618 | 0.5783
298.15 K, 101.33 kPa, x1 = 0.8029 | 0.5874
298.15 K, 101.33 kPa, x1 = 0.9087 | 0.5951
303.15 K, 101 kPa, x1 = 0.28 | 0.525
303.15 K, 101 kPa, x1 = 0.54 | 0.531
303.15 K, 101 kPa, x1 = 0.78 | 0.539
303.15 K, 101.3 kPa, x1 = 0.0529 | 0.5206
303.15 K, 101.3 kPa, x1 = 0.1185 | 0.522
303.15 K, 101.3 kPa, x1 = 0.2615 | 0.5257
303.15 K, 101.3 kPa, x1 = 0.3482 | 0.5277
303.15 K, 101.3 kPa, x1 = 0.4486 | 0.5312
303.15 K, 101.3 kPa, x1 = 0.5963 | 0.5372
303.15 K, 101.3 kPa, x1 = 0.7138 | 0.5426
303.15 K, 101.3 kPa, x1 = 0.8413 | 0.5482
303.15 K, 101.3 kPa, x1 = 0.9558 | 0.5538
303.15 K, 101.33 kPa, x1 = 0.1688 | 0.509
303.15 K, 101.33 kPa, x1 = 0.4383 | 0.523
303.15 K, 101.33 kPa, x1 = 0.5149 | 0.526
303.15 K, 101.33 kPa, x1 = 0.6583 | 0.529
303.15 K, 101.33 kPa, x1 = 0.7819 | 0.54
303.15 K, 101.33 kPa, x2 = 0.1 | 0.587
303.15 K, 101.33 kPa, x2 = 0.2 | 0.576
303.15 K, 101.33 kPa, x2 = 0.402 | 0.563
303.15 K, 101.33 kPa, x2 = 0.6 | 0.551
303.15 K, 101.33 kPa, x2 = 0.8 | 0.539
303.15 K, 101.33 kPa, x2 = 0.899 | 0.53
305.15 K, 101.33 kPa, x2 = 0.83 | 0.5517
305.35 K, 101.33 kPa, x2 = 0.508 | 0.5535
305.35 K, 101.33 kPa, x2 = 0.719 | 0.554
305.55 K, 101.33 kPa, x2 = 0.107 | 0.5782
305.55 K, 101.33 kPa, x2 = 0.62 | 0.5525
305.65 K, 101.33 kPa, x2 = 0.202 | 0.57
305.75 K, 101.33 kPa, x2 = 0.386 | 0.5579
308.15 K, 101 kPa, x1 = 0.54 | 0.502
308.15 K, 101 kPa, x1 = 0.78 | 0.506
308.15 K, 101.33 kPa, x2 = 0.1 | 0.564
308.15 K, 101.33 kPa, x2 = 0.2 | 0.556
308.15 K, 101.33 kPa, x2 = 0.402 | 0.541
308.15 K, 101.33 kPa, x2 = 0.6 | 0.532
308.15 K, 101.33 kPa, x2 = 0.8 | 0.518
308.15 K, 101.33 kPa, x2 = 0.899 | 0.507
312.85 K, 101.33 kPa, x2 = 0.107 | 0.5215
312.95 K, 101.33 kPa, x2 = 0.202 | 0.5201
312.95 K, 101.33 kPa, x2 = 0.272 | 0.5187
313.05 K, 101.33 kPa, x2 = 0.719 | 0.5077
313.15 K, 101 kPa, x1 = 0.28 | 0.472
313.15 K, 101 kPa, x1 = 0.54 | 0.476
313.15 K, 101 kPa, x1 = 0.78 | 0.48
313.15 K, 101.33 kPa, x1 = 0.1688 | 0.456
313.15 K, 101.33 kPa, x1 = 0.4383 | 0.463
313.15 K, 101.33 kPa, x1 = 0.6583 | 0.471
313.15 K, 101.33 kPa, x1 = 0.7819 | 0.479
313.15 K, 101.33 kPa, x2 = 0.1 | 0.55
313.15 K, 101.33 kPa, x2 = 0.2 | 0.529
313.15 K, 101.33 kPa, x2 = 0.402 | 0.517
313.15 K, 101.33 kPa, x2 = 0.6 | 0.505
313.15 K, 101.33 kPa, x2 = 0.8 | 0.491
313.15 K, 101.33 kPa, x2 = 0.899 | 0.483
313.25 K, 101.33 kPa, x2 = 0.386 | 0.51
313.35 K, 101.33 kPa, x2 = 0.508 | 0.5064
313.45 K, 101.33 kPa, x2 = 0.62 | 0.5057
313.45 K, 101.33 kPa, x2 = 0.83 | 0.5068
318.15 K, 101.33 kPa, x2 = 0.1 | 0.531
318.15 K, 101.33 kPa, x2 = 0.2 | 0.517
318.15 K, 101.33 kPa, x2 = 0.402 | 0.5
318.15 K, 101.33 kPa, x2 = 0.6 | 0.484
318.15 K, 101.33 kPa, x2 = 0.8 | 0.471
318.15 K, 101.33 kPa, x2 = 0.899 | 0.464
322.55 K, 101.33 kPa, x2 = 0.719 | 0.464
322.85 K, 101.33 kPa, x2 = 0.83 | 0.4607
322.95 K, 101.33 kPa, x2 = 0.202 | 0.4648
323.05 K, 101.33 kPa, x2 = 0.62 | 0.4581
323.15 K, 100 kPa, x2 = 0.25 | 0.431
323.15 K, 100 kPa, x2 = 0.5 | 0.427
323.15 K, 100 kPa, x2 = 0.75 | 0.424
323.15 K, 101.33 kPa, x1 = 0.1688 | 0.411
323.15 K, 101.33 kPa, x1 = 0.4383 | 0.416
323.15 K, 101.33 kPa, x1 = 0.5149 | 0.42
323.15 K, 101.33 kPa, x1 = 0.6583 | 0.423
323.15 K, 101.33 kPa, x1 = 0.7819 | 0.424
